Results from patent US7989467B2, “Use of indole-derived compounds for the preparation of a medicament that can be used to treat diseases related to the splicing process” (Centre National de la Recherche Scientifique (CNRS), priority 2003, dated 2011).

biological target: T1, SRp55 (Homo sapiens, UniProt Q13247); experiment: In vitro splicing results, Table 3: SRp55; assay type: biochemical; settings: summary of Table 3
T1 sequence (Q13247 1-344): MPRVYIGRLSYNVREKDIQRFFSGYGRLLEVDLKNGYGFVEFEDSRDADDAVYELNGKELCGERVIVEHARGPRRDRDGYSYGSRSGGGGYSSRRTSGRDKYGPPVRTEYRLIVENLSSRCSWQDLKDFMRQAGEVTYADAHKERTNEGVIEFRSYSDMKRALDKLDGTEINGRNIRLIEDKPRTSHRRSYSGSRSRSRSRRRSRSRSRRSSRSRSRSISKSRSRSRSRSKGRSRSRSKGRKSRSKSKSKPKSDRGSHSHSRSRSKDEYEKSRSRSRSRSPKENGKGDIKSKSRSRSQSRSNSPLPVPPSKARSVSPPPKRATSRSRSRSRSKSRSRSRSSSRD

Row | SMILES | inhibit the activity of the SRp55 protein specifically
1 | COc1ccc2[nH]c3c(C)c4ccnc(NCCN5CCCC5)c4cc3c2c1 [C42, (9-methoxy-5-methyl-6H-pyrido[4,3-b]carbazol-1-yl)-(2-pyrrolidin-1-yl-ethyl)-amine] | inhibit the activity of the SRp55 protein specifically
2 | Cc1c2ccnc(NCCC(C)C)c2c(C)c2c1[nH]c1ccc(O)cc12 [C19, 5,11-dimethyl-1-(3-methyl-butylamino)-6H-pyrido[4,3-b]carbazol-9-ol] | inhibit the activity of the SRp55 protein specifically
3 | Cc1cnc(NCCCN(C)C)c2c1[nH]c1c3cccc(O)c3ccc12 [C76, 7-(3-dimethylamino-propylamino)-10-methyl-11H-benzo[g]pyrido[4,3-b]indol-4-ol] | inhibit the activity of the SRp55 protein specifically
4 | COc1cccc2c1ccc1[nH]c3c(C)cnc(NCCCN(C)C)c3c12 [C93, N′-(4-methoxy-8-methyl-7H-benzo[e]pyrido[4,3-b]indol-11-yl)-N,N-dimethyl-propane-1,3-diamine] | inhibit the activity of the SRp55 protein specifically
5 | COc1ccc2c(ccc3[nH]c4c(C)cnc(NCCCCCCN)c4c32)c1 [C95, N-(3-methoxy-8-methyl-7H-benzo[e]pyrido[4,3-b]indol-11-yl)-hexane-1,6-diamine] | inhibit the activity of the SRp55 protein specifically
6 | Cc1cnc(NCCCN(C)C)c2c1[nH]c1ccc3ccccc3c12 [C87, N,N-dimethyl-N′-(8-methyl-7H-benzo[e]pyrido[4,3-b]indol-11-yl)-propane-1,3-diamine] | inhibit the activity of the SRp55 protein specifically
7 | CCN(CC)CCCNc1ncc(C)c2c1c1ccc3ccccc3c1n2C [C78, N′-(10,11-dimethyl-11H-benzo[g]pyrido[4,3-b]indol-7-yl)-N,N-diethyl-propane-1,3-diamine] | inhibit the activity of the SRp55 protein specifically
8 | COc1ccc2ccc3[nH]c4c(C)cnc(NCCCN(C)C)c4c3c2c1 [C77, N′-(2-methoxy-8-methyl-7H-benzo[e]pyrido[4,3-b]indol-11-yl)-N,N-dimethyl-propane-1,3-diamine] | inhibit the activity of the SRp55 protein specifically
9 | COc1cccc2c1ccc1c3c(NCCCN(C)C)ncc(C)c3n(C)c21 [C85, N′-(4-methoxy-10,11-dimethyl-11H-benzo[g]pyrido[4,3-b]indol-7-yl)-N,N-dimethyl-propane-1,3-diamine] | inhibit the activity of the SRp55 protein specifically
10 | Cc1cnc(NCCCN(C)C)c2c1[nH]c1c3ccccc3ccc12 [C80, N,N-dimethyl-N′-(10-methyl-11H-benzo[g]pyrido[4,3-b]indoi-7-yl)-propane-1,3-diamine] | inhibit the activity of the SRp55 protein specifically
11 | CCN(CC)CCCNc1ncc(C)c2[nH]c3c4ccccc4ccc3c12 [C82, N,N-diethyl-N′-(10-methyl-11H-benzo[g]pyrido[4,3-b]indol-7-yl)-propane-1,3-diamine] | inhibit the activity of the SRp55 protein specifically
12 | Cc1cnc(NCCCN(C)C)c2c3c4ccccc4ccc3n(C)c12 [C79, N′-(7,8-dimethyl-7H-benzo[e]pyrido[4,3-b]indol-11-yl)-N,N-dimethyl-propane-1,3-diamine] | inhibit the activity of the SRp55 protein specifically
13 | Cc1cnc(NCC(C)CN(C)C)c2c1[nH]c1ccc3cc(O)ccc3c12 (stereo not shown) [C88, 11-(3-dimethylamino-2-methyl-propylamino)-8-methyl-7H-benzo[e]pyrido[4,3-b]indol-3-ol] | inhibit the activity of the SRp55 protein specifically

system: HIV; experiment: Inhibition of HIV multiplication in PMA-stimulated U1 cells (RT-PCR of viral transcripts); assay type: cell-based; settings: 2.5 μM; 24 h; U1 cells treated with 50 nM PMA; FIG. 6
Text: To this end, human […] cell line U1, which is chronically infected by HIV (Folks et al., 1988. Characterization of a promonocyte clone chronically infected with HIV and inducible by 13-phorbol-12-myristate acetate. J. Immunol., 140: 1117-1122) and which produces large quantities of virus after stimulation by PMA (phorbol myristate acetate), was used. As a result, this cell line constitutes an excellent model to mimic the transition between the latency phase and the viral production phase observed in patients infected by HIV.
The results of this experiment are presented in FIG. 6 in which U1 cells (5×10^5) were treated with 50 nM of PMA in the absence (FIG. 6, lane 1) or in the presence of 2.5 μM of compounds C47, C97, C58, C57, C92, C91, C90, C83, C73, C34, C51, C45, C13, C10, C44, C6, C7, C41, C50, C32, C2, C1, C29, C35 and C99 (FIG. 6, lanes 3-27, respectively). After 24 h of treatment, the virus's transcripts were amplified by RT-PCR using specific VIH, BSS and SJ4.7A primers (Jacquenet et al., 2001, A second exon splicing silencer within human immunodeficiency virus type 1 tat exon 2 represses splicing of Tat mRNA and binds protein hnRNP. H. J. Biol. Chem. 276: 40464-75) and a radioactive tracer (α-32P) CTP.

Row | SMILES | inhibition of HIV multiplication (amplification of viral transcripts)
14 | COc1ccc2[nH]c3c(C)c4ccnc(NCCCCCCNc5c6cc7c([nH]c8ccc(OC)cc87)c(C)c6cc[n+]5C)c4cc3c2c1.[I-] [C13, 9-methoxy-1-[6-(9-methoxy-5-methyl-6H-pyrido[4,3-b]carbazol-1-ylamino)-hexylamino]-2,5-dimethyl-6H-pyrido[4,3-b]carbazol-2-ium iodide] | excellent inhibitors of HIV multiplication
15 | COc1cccc2c1ccc1c2[nH]c2c(C)cnc(N)c21 [C83, 4-methoxy-10-methyl-11H-benzo[g]pyrido[4,3-b]indol-7-ylamine] | excellent inhibitors of HIV multiplication
16 | CCN(CC)CCCNc1nccc2c(C)c3[nH]c4ccncc4c3cc12 [C51, N-N,diethyl-N′-(6-methyl-5H-pyrido[3′,4′:4,5]pyrrolo[2,3-g]isoquinolin-10-yl)-propane-1,3-diamine] | excellent inhibitors of HIV multiplication
17 | CCN(CC)CC(O)CNc1nccc2c(C)c3[nH]c4ccc(OC)cc4c3cc12 (stereo not shown) [C44, 1-diethylamino-3-(9-methoxy-5-methyl-6H-pyrido[4,3-b]carbazol-1-ylamino)-propan-2-ol] | excellent inhibitors of HIV multiplication
18 | C=CCNc1nccc2c(C)c3[nH]c4ccc(OC)cc4c3c(C)c12 [C10, allyl-(9-methoxy-5,11-dimethyl-6H-pyrido[4,3-b]carbazol-1-yl)-amine] | excellent inhibitors of HIV multiplication
19 | CCNCCCNc1nccc2c(C)c3c(cc12)c1cnccc1n3C [C99, N-(5,6-dimethyl-5H-pyrido[3′4′:4,5]pyrrolo[2,3-g]isoquinolin-10-yl)-N′-ethyl-propane-1,3-diamine] | excellent inhibitors of HIV multiplication
20 | CCN(CC)CCNc1nccc2c(C)c3c(c(C)c12)c1cc(OC)ccc1n3C [C29, N,N-diethyl-N′-(9-methoxy-5,6,11-trimethyl-6H-pyrido[4,3-b]carbazol-1-yl)-ethane-1,2-diamine] | excellent inhibitors of HIV multiplication
21 | CCN(CC)CCCNc1nccc2c(C)c3[nH]c4ccc(O)cc4c3cc12 [C35, 1-(3-diethylamino-propylamino)-5-methyl-6H-pyrido[4,3-b]carbazol-9-ol] | excellent inhibitors of HIV multiplication
22 | COc1ccc2c(ccc3c2[nH]c2c(C)cnc(NCCCN(C)CCCN)c23)c1 [C97, N-[3-(3-methoxy-10-methyl-11H-benzo[g]pyrido[4,3-b]indol-7-ylamino)-propyl]-N-methyl-propane-1,3-diamine] | excellent inhibitors of HIV multiplication
23 | Cc1c2ccnc(NCCCN(C)C)c2cc2c3cnccc3n(C)c12 [C32, N′-(5,6-dimethyl-5H-pyrido[3′4′:4,5]pyrrolo[2,3-g]isoquinolin-10-yl)-N,N-dimethyl-propane-1,3-diamine] | excellent inhibitors of HIV multiplication
24 | COc1ccc2c(ccc3c2[nH]c2c(C)cnc(NCCCN)c23)c1 [C91, N-(3-methoxy-10-methyl-11H-benzo[g]pyrido[4,3-b]indol-7-yl)-propane-1,3-diamine] | excellent inhibitors of HIV multiplication
25 | COc1ccc2c(c1)c1c(C)c3c(NCCCN(C)C)nccc3c(C)c1n2C [C1, N′-(9-methoxy-5,6,11-trimetyl-6H-pyrido[4,3-b]carbazol-1-yl)-N,N-dimethyl-propane-1,3-diamine] | excellent inhibitors of HIV multiplication
26 | COc1ccc2c(ccc3[nH]c4c(C)cnc(NCCCN(C)C)c4c32)c1 [C92, N′-(3-methoxy-8-methyl-7H-benzo[e]pyrido[4,3-b]indol-11-yl)-N,N-dimethyl-propane-1,3-diamine] | excellent inhibitors of HIV multiplication
27 | COc1ccc2c(ccc3c2[nH]c2c(C)cnc(NCCCCN)c23)c1 [C47, N-(3-methoxy-10-methyl-11H-benzo[g]pyrido[4,3-b]indol-7-yl)-butane-1,4-diamine] | excellent inhibitors of HIV multiplication
28 | CCN(CC)CCCNc1nccc2c(C)c3[nH]c4ccc(OC)cc4c3c(C)c12 [C41, N,N-diethyl-N′-(9-methoxy-5,11-dimethyl-6H-pyrido[4,3-b]carbazol-1-yl)-propane-1,3-diamine] | excellent inhibitors of HIV multiplication
